Results: patent US8501995B2, “β-phenylethylidenehydrazine derivatives” (The Governors of the University of Alberta, priority 2009, dated 2013)
Read-outs that look alike come from different tables or passages of the source.

How the values were obtained:
MAO-A [1] = molecular target: T1, MAO-A (Rattus norvegicus, UniProt P21396); assay: MAO-A activity ex vivo in brain tissue of drug-treated rats; conditions: for effect on MAO-A activity ex vivo: time points tested 3, 6, 12 hours, i.p., equimolar doses (PEH 30 mg/kg, 7p 47 mg/kg, 8p 38.5 mg/kg); for MAO-A activity ex vivo / MAO-A inhibition ex vivo: 8p 38.5 mg/kg i.p.
T1 construct: from tissue; host or cells: rat (male Sprague-Dawley) whole brain homogenate
T1 sequence (P21396 1-526): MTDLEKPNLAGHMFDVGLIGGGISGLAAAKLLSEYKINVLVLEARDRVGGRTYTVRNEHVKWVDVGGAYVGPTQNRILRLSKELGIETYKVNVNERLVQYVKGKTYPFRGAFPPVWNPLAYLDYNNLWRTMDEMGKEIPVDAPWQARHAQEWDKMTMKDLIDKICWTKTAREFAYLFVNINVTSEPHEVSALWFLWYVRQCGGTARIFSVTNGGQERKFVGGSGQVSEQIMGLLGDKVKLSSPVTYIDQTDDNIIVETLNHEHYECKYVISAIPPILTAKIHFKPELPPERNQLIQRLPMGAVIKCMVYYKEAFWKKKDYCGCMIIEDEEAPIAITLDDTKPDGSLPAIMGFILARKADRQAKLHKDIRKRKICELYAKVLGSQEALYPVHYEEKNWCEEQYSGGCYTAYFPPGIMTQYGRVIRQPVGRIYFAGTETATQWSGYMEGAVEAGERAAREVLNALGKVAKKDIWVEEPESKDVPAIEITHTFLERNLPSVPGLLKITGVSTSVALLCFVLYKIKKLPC
Method: (§1) Male Sprague-Dawley rats (approximately 300 g) were pair-housed in polycarbonate cages with free access to food (Purina Rat Chow) and water, and were maintained on a 12-hour light-dark cycle (lights on at 0800). All animal procedures were approved by the University of Alberta Biosciences Animal Policy and Welfare Committee, and were carried out in accordance with the guidelines of the Canadian Council on Animal Care.
(§2) In the ex vivo studies, animals were injected intraperitoneally with equimolar amounts of PEH (30 mg/kg), 7p (47 mg/kg) or 8p (38.5 mg/kg) or vehicle (corn oil) and were killed by decapitation 3, 6 or 12 hours following drug administration. Brains were rapidly removed and flash-frozen in 2-methylbutane on solid carbon dioxide, and were stored at −80° C. Subsequently, partially-thawed brains were homogenized in 5 volumes of ice-cold distilled water, and stored in aliquots at -80° C. for use in subsequent analyses (GABA-T, MAO-A, MAO-B, and brain levels of amino acids) after addition to the appropriate buffer medium.
(§3) Monoamine oxidase activity was determined using a modified protocol described by Lyles and Callingham.^51 In the in vitro studies, the drugs were pre-incubated with control rat brain homogenate prior to conducting the assay. Briefly, tissue homogenate was diluted in KH2PO4 (0.2M), and an aliquot (50 μl) was incubated with the appropriate radiolabelled substrates (^14C-labelled 5-hydroxytryptamine and β-phenylethylamine were used as substrates for MAO-A and -B respectively). The reaction products were extracted by a mixture of ethyl acetate and toluene (1:1 v/v), and a portion of the top layer was added to a vial containing scintillation fluid for radioactivity measurement. Radioactivity (dpm) was counted using a Beckman LS 7500 liquid scintillation spectrometer.

MAO-A [2] = molecular target: T1, MAO-A; assay: MAO-A inhibition in vitro in control rat brain homogenate (14C-5-hydroxytryptamine substrate); format: biochemical
Method: as §3

[3] = test system: brain levels of amino acids (GABA, glutamate, alanine and glycine); format: in vivo; conditions: rat whole brain; for effect on brain GABA levels / effect on brain alanine levels / effect on brain glutamate levels / effect on brain glycine levels: 3, 6, 12 hours, i.p., equimolar doses (PEH 30 mg/kg, 7p 47 mg/kg, 8p 38.5 mg/kg)
Method: as §1, §2
Amino acid levels (GABA, glutamate, alanine and glycine) were determined using a modified procedure previously described by Grant and colleagues^52 for the quantification of amino acids using HPLC combined with fluorescence detection, following derivatization with fluoraldehyde reagent [o-phthaldialdehyde (OPA)] and isobutyryl-L-cysteine (IBLC). Briefly, a portion of the homogenate (100 μl) was added to ice-cold methanol (400 μl), re-homogenized and centrifuged (13,000 g, 4° C.). The supernatants were further diluted by a factor of 2 in ice-cold water, and transferred to HPLC vials. A portion of the supernatant (5 μl) was reacted with OPA/IBLC (5 μl) in the injection loop of a Waters Alliance 2690XE system for 1.5 minutes before injection onto the analytical column (Symmetry C18 5 μm (4.6×150 mm)), connected to a Symmetry C18 guard column, held at 30° C. A Waters 474 fluorescence detector was set to an excitation wavelength of 344 nm and an emission wavelength of 443 nm. Data were collected and analyzed using the Empower Pro software package (Waters).

MAO-B [4] = molecular target: T2, MAO-B (Rattus norvegicus, UniProt P19643); assay: MAO-B inhibition in vitro in control rat brain homogenate (14C-β-phenylethylamine substrate); format: biochemical
T2 construct: the drugs were pre-incubated with control rat brain homogenate prior to conducting the assay; from tissue; host or cells: rat (male Sprague-Dawley) whole brain homogenate
T2 sequence (P19643 1-520): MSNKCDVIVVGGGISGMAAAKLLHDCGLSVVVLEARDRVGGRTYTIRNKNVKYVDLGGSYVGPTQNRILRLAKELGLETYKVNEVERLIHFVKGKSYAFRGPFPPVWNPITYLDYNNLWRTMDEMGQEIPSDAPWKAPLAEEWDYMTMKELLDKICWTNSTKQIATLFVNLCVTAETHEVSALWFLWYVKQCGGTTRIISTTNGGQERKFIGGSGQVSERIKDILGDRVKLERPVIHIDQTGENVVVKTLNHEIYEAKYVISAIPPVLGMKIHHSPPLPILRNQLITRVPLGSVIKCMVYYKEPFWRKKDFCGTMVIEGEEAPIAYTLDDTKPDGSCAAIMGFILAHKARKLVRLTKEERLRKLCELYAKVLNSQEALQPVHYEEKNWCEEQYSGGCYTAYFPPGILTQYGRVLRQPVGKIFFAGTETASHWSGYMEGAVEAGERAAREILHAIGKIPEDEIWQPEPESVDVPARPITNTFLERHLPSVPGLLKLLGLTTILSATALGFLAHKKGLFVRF
Method: as §3

MAO-B [5] = molecular target: T2, MAO-B; assay: MAO-B activity ex vivo in brain tissue of drug-treated rats; conditions: i.p.; for MAO-B activity ex vivo: 7p 47 mg/kg, 8p 38.5 mg/kg; for effect on MAO-B activity ex vivo: time points tested 3, 6, 12 hours, equimolar doses (PEH 30 mg/kg, 7p 47 mg/kg, 8p 38.5 mg/kg)
Method: as §1, §2, §3

GABA-T [6] = molecular target: T3, GABA-T (Rattus norvegicus, UniProt P50554); assay: GABA-T activity ex vivo in brain homogenates of drug-treated rats (radiochemical); conditions: i.p., equimolar doses (PEH 30 mg/kg, 7p 47 mg/kg, 8p 38.5 mg/kg)
T3 construct: Brain homogenate from control rats was pre-incubated with the drug of interest; from tissue; host or cells: rat (male Sprague-Dawley) whole brain homogenate
T3 sequence (P50554 28-500): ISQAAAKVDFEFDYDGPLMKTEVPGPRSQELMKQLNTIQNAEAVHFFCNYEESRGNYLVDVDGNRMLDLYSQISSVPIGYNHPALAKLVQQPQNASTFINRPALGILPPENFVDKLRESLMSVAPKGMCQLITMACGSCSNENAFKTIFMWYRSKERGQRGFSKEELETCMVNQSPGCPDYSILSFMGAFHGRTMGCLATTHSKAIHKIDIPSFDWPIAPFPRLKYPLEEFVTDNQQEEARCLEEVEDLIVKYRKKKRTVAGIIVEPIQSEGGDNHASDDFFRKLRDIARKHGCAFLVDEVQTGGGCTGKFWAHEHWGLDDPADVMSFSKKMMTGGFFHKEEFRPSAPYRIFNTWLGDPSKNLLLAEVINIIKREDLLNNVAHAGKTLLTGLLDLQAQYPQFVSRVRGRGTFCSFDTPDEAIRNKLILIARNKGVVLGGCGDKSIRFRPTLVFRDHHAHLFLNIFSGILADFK
Method: as §1, §2
(§4) A modification of the colorimetric method of Sethi^49 was used in the initial in vitro screen. Brain homogenate from control rats was pre-incubated with the drug of interest and an incubation buffer before conducting the assay. In the ex vivo study of homogenates from brains of rats treated with the analogs, GABA-T activity was measured using the radiochemical procedure of Sterri and Fonnum.^20 Briefly, homogenates were incubated with radiolabelled GABA in a buffer containing pyridoxal phosphate and the resultant products were isolated using a liquid anion exchanger (tri-n-octylamine). Radioactivity (dpm) was counted using a Beckman LS 7500 liquid scintillation spectrometer.

GABA-T [7] = molecular target: T3, GABA-T; assay: GABA-T inhibition in vitro, colorimetric screen in control rat brain homogenate; format: biochemical
Method: as §4

[8] = 6 hours following drug injection
[9] = 12 hours following drug injection
[10] = 3 hours following drug administration
[11] = 6 hours following drug administration
[12] = rat brain homogenate, mean±SEM, n=4
[13] = 3 hours following injection, PEH 30 mg/kg i.p.

Structure (SMILES)	effect on MAO-A activity ex vivo (MAO-A [1])	inhibition of MAO-A in vitro (MAO-A [2]; concentration of 10 μM)	effect on brain GABA levels [3]	effect on brain alanine levels [3]	effect on brain glutamate levels [3]	effect on brain glycine levels [3]	inhibition of MAO-B in vitro (MAO-B [4]; concentration of 10 μM)	MAO-B activity ex vivo (MAO-B [5]; [8])	MAO-B activity ex vivo (MAO-B [5]; [9])	effect on MAO-B activity ex vivo (MAO-B [5])	GABA-T activity ex vivo (GABA-T [6]; 3 hours post-injection)	GABA-T activity ex vivo (GABA-T [6]; 6 hours post-injection)	GABA-T activity ex vivo (GABA-T [6]; 12 hours post-injection)	inhibition of MAO-A in vitro (MAO-A [2]; [12])	inhibition of MAO-B in vitro (MAO-B [4]; [12])	other results
C#CCN(CC#C)/N=C/Cc1ccccc1 [7p]	did not significantly alter MAO-A activity at any time point tested	neither 7p nor 8p caused any inhibition of MAO-A or -B	did not significantly alter the levels of GABA, alanine or glutamate at any time point tested	did not significantly alter the levels of GABA, alanine or glutamate at any time point tested	did not significantly alter the levels of GABA, alanine or glutamate at any time point tested	increased glycine at 3, 6 and 12 hours post-injection	neither 7p nor 8p caused any inhibition of MAO-A or -B	58 % of control	25 % of control	significantly reducing MAO-B activity at all time points tested	86 % of control	86 % of control	not significantly different from control values			brain glycine level ([3]; 12 hours post-injection, 7p 47 mg/kg i.p.): 248 % of control
C#CCNN=CCc1ccccc1 [8p, (E)- and (Z)-N-(2-Propynyl)-2-(phenyl)ethylidene]hydrazines]	weak, transient effect on MAO-A	neither 7p nor 8p caused any inhibition of MAO-A or -B	did not significantly alter the levels of GABA, alanine or glutamate at any time point tested	did not significantly alter the levels of GABA, alanine or glutamate at any time point tested	did not significantly alter the levels of GABA, alanine or glutamate at any time point tested	significantly increased glycine at 3 and 6 hours post-injection	neither 7p nor 8p caused any inhibition of MAO-A or -B	24 % of control	29 % of control	significantly reducing MAO-B activity at all time points tested	76 % of control	77 % of control	not significantly different from control values			MAO-A activity ex vivo (MAO-A [1]; [10]): 78 % of control; MAO-A inhibition ex vivo (MAO-A [1]; [10]): 22%; MAO-A activity ex vivo (MAO-A [1]; [11]): 70 % of control; MAO-A inhibition ex vivo (MAO-A [1]; [11]): 30%; brain glycine level ([3]; 6 hours post-injection, 8p 38.5 mg/kg i.p.): 216 % of control
NN=CCc1ccccc1 [PEH, β-Phenylethylidenehydrazine]	did not alter the activity of either MAO-A or -B		increased brain GABA and alanine levels	increased brain GABA and alanine levels	did not significantly alter brain glutamate or glycine levels	did not significantly alter brain glutamate or glycine levels				did not alter the activity of either MAO-A or -B	66 % of control	66 % of control	70 % of control	26.7±3.1%	14.9±6.6%	brain GABA level [3, 13]: 418 % of control; brain alanine level [3, 13]: 489 % of control; inhibition at 10 µM (GABA-T [7]): ~50%
NNCCc1ccccc1 [PLZ, phenelzine, reference compound]														greater than 95%	greater than 95%	
